According to ChEMBL document CHEMBL4334526, “Synthesis of Peptoid-Based Class I-Selective Histone Deacetylase Inhibitors with Chemosensitizing Properties” (J Med Chem, 2019):

Key:
[1] = biological target: Histone deacetylase; assay: Inhibition of HDAC in human CAL27 cells using Boc-Lys(epsilon-Ac)-AMC as substrate preincubated for 18 hrs followed by substrate addition and measured after 3 hrs by fluorescence assay; assay type: cell-based
[2] = biological target: T1, Histone deacetylase 8 (Homo sapiens, UniProt Q9BY41); assay: Inhibition of recombinant human C-terminal His-fusion tagged/N-terminal Strep-2 tagged HDAC8 (1 to 377 residues) expressed in insect cells using Boc-Lys(TFa)-AMC as substrate preincubated for 5 mins followed by substrate addition measured after 90 mins by fluorescence assay
T1 sequence (Q9BY41 whole entry): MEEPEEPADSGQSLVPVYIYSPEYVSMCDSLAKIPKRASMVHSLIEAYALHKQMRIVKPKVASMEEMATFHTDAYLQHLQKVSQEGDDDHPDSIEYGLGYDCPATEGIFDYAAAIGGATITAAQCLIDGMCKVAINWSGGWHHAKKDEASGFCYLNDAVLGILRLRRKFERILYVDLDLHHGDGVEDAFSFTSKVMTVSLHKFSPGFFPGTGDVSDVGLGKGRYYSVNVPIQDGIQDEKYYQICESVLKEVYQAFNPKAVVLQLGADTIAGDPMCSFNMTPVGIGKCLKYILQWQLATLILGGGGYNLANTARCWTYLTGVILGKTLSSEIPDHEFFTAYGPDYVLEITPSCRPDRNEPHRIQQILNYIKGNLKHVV

[3] = system: CAL-27; assay: Cytotoxicity against human CAL27 cells assessed as reduction in cell survival measured after 72 hrs by MTT assay; assay type: functional, cell-based; conditions: CAL-27, 72 h
[4] = biological target: T2, Class 1 histone deacetylase (Homo sapiens, UniProt Q13547+O15379+Q92769+Q9BY41); assay: Inhibition of class 1 HDAC in human Cal27CisR cells assessed as potentiation of cisplatin-induced cytotoxicity by measuring combination index at […] in presence of 1 uM cisplatin by MTT assay based Chou-Talalay analysis; assay type: cell-based
T2 sequence (O15379 whole entry, looked up, one chain of several): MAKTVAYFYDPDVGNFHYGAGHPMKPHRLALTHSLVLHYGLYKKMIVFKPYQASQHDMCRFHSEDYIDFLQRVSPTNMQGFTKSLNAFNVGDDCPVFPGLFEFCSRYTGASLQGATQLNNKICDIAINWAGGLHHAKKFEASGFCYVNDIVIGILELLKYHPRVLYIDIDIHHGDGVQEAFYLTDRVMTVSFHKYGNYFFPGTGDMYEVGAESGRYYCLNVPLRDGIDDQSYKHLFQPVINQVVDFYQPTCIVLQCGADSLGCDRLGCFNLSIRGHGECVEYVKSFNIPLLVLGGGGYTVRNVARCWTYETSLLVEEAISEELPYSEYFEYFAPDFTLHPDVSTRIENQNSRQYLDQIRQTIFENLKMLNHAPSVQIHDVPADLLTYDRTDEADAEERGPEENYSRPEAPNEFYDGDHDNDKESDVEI
T2 sequence (Q13547 whole entry, looked up, one chain of several): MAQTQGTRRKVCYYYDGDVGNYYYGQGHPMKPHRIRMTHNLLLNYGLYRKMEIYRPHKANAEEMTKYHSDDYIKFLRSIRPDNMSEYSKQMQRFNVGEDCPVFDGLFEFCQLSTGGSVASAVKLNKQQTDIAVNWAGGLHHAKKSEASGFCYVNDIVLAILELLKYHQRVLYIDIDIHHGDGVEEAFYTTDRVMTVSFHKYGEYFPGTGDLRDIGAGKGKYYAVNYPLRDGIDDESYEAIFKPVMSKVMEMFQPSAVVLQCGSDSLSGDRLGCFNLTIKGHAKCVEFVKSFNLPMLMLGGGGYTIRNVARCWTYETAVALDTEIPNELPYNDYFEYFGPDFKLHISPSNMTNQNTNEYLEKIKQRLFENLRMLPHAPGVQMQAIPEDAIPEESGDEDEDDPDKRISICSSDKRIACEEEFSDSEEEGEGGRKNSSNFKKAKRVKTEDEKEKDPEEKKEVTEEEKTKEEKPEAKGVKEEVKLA
T2 sequence (Q92769 whole entry, looked up, one chain of several): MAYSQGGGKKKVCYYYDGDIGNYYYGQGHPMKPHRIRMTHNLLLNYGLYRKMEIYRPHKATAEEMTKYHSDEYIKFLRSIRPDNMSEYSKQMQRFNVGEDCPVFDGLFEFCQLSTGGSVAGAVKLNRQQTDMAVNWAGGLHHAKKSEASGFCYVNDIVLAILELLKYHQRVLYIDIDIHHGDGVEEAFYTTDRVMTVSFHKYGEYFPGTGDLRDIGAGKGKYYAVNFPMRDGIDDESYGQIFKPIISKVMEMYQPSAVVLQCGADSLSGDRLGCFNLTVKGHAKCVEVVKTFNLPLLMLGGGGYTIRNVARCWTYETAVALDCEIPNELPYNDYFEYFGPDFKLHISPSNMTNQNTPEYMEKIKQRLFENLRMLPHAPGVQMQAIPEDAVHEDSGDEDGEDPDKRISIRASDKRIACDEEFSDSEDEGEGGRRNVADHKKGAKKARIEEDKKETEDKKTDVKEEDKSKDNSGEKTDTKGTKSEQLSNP

[5] = biological target: T2, Class 1 histone deacetylase; assay: Inhibition of class 1 HDAC in human Cal27CisR cells assessed as potentiation of cisplatin-induced cytotoxicity by measuring combination index at […] in presence of 10 uM cisplatin by MTT assay based Chou-Talalay analysis; assay type: cell-based
[6] = biological target: Histone deacetylase 1 (Homo sapiens, UniProt Q13547); assay: Inhibition of recombinant human full length C-terminal His/FLAG-tagged HDAC1 expressed in baculovirus infected Sf9 insect cells using ZMAL as substrate incubated for 90 mins by fluorescence assay
Histone deacetylase 1, sequence (Q13547 whole entry): as the sequence (Q13547 whole entry, looked up, one chain of several) above

[7] = biological target: T2, Class 1 histone deacetylase; assay: Inhibition of class 1 HDAC in human CAL27 cells assessed as potentiation of cisplatin-induced cytotoxicity by measuring combination index at […] in presence of […] cisplatin by MTT assay based Chou-Talalay analysis; assay type: cell-based; conditions: CAL-27
[8] = biological target: Histone deacetylase 2 (Homo sapiens, UniProt Q92769); assay: Inhibition of recombinant human full length C-terminal FLAG-tagged HDAC2 expressed in baculovirus infected Sf9 insect cells using Boc-Lys(epsilon-acetyl)-AMC as substrate incubated for 90 mins by fluorescence assay; assay type: cell-based
Histone deacetylase 2, sequence (Q92769 whole entry): as the sequence (Q92769 whole entry, looked up, one chain of several) above

[9] = biological target: Histone deacetylase; assay: Inhibition of HDAC in human A2780 cells using Boc-Lys(epsilon-Ac)-AMC as substrate preincubated for 18 hrs followed by substrate addition and measured after 3 hrs by fluorescence assay; assay type: cell-based
[10] = biological target: T2, Class 1 histone deacetylase; assay: Inhibition of class 1 HDAC in human Cal27CisR cells assessed as potentiation of cisplatin-induced cytotoxicity by measuring combination index at 1 uM in presence of 10 uM cisplatin by MTT assay based Chou-Talalay analysis; assay type: cell-based
[11] = biological target: T2, Class 1 histone deacetylase; assay: Inhibition of class 1 HDAC in human CAL27 cells assessed as potentiation of cisplatin-induced cytotoxicity by measuring combination index at 1 uM in presence of 10 uM cisplatin by MTT assay based Chou-Talalay analysis; assay type: cell-based; conditions: CAL-27
[12] = biological target: T3, Protein deacetylase HDAC6 (Homo sapiens, UniProt Q9UBN7); assay: Inhibition of human full length N-terminal GST-tagged HDAC6 expressed in baculovirus infected Sf9 insect cells ZMAL as substrate incubated for 90 mins by fluorescence assay; assay type: cell-based
T3 sequence (Q9UBN7 whole entry): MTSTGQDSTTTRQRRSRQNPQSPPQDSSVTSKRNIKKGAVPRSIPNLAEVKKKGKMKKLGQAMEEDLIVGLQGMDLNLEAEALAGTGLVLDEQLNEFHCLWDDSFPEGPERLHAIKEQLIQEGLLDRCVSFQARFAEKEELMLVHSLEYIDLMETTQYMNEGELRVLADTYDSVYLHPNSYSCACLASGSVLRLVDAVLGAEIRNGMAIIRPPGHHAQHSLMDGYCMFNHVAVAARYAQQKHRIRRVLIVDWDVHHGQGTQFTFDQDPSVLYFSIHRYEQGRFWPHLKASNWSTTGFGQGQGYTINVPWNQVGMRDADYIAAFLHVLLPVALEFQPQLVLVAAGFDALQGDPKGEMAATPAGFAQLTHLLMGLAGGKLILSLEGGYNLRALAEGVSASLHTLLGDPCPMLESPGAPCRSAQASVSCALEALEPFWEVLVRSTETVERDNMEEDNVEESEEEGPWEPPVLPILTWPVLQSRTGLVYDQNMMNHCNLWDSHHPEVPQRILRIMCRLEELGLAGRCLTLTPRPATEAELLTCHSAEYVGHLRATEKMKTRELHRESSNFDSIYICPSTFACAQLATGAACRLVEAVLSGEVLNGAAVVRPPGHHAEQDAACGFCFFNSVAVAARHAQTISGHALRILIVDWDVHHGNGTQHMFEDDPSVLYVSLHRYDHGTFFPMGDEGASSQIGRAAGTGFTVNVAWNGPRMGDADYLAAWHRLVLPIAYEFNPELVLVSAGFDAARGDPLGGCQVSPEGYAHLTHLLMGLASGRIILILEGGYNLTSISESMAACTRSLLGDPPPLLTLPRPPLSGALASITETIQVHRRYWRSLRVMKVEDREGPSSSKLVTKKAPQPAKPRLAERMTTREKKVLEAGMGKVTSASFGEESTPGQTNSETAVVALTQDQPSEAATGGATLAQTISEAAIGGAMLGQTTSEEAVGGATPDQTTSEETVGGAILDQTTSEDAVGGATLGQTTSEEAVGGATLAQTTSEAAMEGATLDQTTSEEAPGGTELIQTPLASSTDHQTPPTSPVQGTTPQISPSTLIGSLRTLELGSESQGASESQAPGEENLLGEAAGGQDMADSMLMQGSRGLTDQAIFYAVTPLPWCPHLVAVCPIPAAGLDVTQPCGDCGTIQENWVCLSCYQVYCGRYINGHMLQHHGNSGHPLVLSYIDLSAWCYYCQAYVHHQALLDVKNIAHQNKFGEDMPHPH

[13] = biological target: Histone deacetylase 4 (Homo sapiens, UniProt P56524); assay: Inhibition of recombinant human N-terminal GST-fused and C-terminal His-tagged HDAC4 (627 to 1084 residues) expressed in baculovirus infected insect cells using Boc-Lys(TFa)-AMC as substrate preincubated for 5 mins followed by substrate addition and measured after 90 mins by fluorescence assay
Histone deacetylase 4, sequence (P56524 whole entry, the tested form may be a part): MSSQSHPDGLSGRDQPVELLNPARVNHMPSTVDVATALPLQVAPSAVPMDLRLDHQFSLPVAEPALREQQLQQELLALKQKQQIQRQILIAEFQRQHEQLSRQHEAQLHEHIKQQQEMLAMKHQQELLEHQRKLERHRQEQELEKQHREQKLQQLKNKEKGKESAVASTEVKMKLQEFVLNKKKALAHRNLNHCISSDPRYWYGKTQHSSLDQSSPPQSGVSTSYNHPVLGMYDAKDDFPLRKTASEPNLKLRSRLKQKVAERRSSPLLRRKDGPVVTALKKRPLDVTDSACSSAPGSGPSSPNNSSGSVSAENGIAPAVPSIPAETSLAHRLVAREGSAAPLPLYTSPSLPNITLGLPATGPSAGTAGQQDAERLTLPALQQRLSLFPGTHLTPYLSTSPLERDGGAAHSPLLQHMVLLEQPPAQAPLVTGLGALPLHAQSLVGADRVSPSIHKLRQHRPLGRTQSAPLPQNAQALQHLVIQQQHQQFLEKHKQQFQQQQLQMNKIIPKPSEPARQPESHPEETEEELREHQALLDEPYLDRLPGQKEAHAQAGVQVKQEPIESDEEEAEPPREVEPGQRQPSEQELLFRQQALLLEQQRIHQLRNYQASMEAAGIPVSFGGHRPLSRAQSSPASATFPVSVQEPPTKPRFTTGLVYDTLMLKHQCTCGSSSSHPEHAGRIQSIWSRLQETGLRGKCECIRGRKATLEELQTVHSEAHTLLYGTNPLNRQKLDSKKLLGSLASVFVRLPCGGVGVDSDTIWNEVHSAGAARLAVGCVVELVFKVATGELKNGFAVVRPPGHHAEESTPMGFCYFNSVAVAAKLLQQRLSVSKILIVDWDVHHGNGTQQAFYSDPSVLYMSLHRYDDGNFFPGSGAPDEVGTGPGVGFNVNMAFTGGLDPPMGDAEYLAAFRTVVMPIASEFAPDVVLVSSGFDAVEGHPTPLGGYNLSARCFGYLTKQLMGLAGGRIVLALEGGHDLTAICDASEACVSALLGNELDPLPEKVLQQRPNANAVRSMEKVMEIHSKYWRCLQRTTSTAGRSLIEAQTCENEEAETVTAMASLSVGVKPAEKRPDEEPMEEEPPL

[14] = biological target: T2, Class 1 histone deacetylase; conditions: CAL-27
Description: Inhibition of class 1 HDAC in human CAL27 cells assessed as potentiation of cisplatin-induced cytotoxicity by measuring combination index at 0.5 uM in presence of 1 uM cisplatin by MTT assay based Chou-Talalay analysis

[15] = biological target: T2, Class 1 histone deacetylase
Description: Inhibition of class 1 HDAC in human Cal27CisR cells assessed as potentiation of cisplatin-induced cytotoxicity by measuring combination index at 0.5 uM in presence of 100 uM cisplatin by MTT assay based Chou-Talalay analysis

| IC50 [1] | IC50 [2] | IC50 [6] | IC50 [8] | IC50 [9] | IC50 [12] | IC50 [13] | Compound | IC50 [3] | CI [4] | CI [5] | CI [7] | CI [10] | CI [11] | CI [14] | CI [15] |
| --- | --- | --- | --- | --- | --- | --- | --- | --- | --- | --- | --- | --- | --- | --- | --- |
| 470 nM | > 10000 nM | 57 nM | 1810 nM | 1430 nM | > 10000 nM | > 10000 nM | Cc1cc(C)cc(C(=O)N(CCCCCC(=O)Nc2cc(-c3ccccc3)ccc2N)CC(=O)NCc2ccccc2)c1 | 18900 nM | < 0.2 | < 0.2 | < 0.2 | < 0.2 | 0.53 |  |  |
| 110 nM | 9210 nM | 38 nM | 283 nM | 480 nM | > 10000 nM | > 10000 nM | CN(C)c1ccc(C(=O)N(CC(=O)NCc2ccccc2)Cc2ccc(C(=O)Nc3ccccc3N)cc2)cc1 | 1600 nM |  |  |  |  |  | 0.16 | 0.07 |

| Compound | IC50 [1] | IC50 [2] | IC50 [6] | IC50 [8] | IC50 [9] | IC50 [12] | IC50 [13] | IC50 [3] | CI [4] | CI [5] | CI [7] | CI [10] | CI [11] | CI [14] | CI [15] |
| --- | --- | --- | --- | --- | --- | --- | --- | --- | --- | --- | --- | --- | --- | --- | --- |
| Cc1cc(C)cc(C(=O)N(CC(=O)NCc2ccccc2)Cc2ccc(C(=O)Nc3cc(-c4ccccc4)ccc3N)cc2)c1 | 630 nM | 3130 nM | 51 nM |  | 1720 nM | > 10000 nM | > 10000 nM | 8900 nM | < 0.2 | 0.31 | 0.34 | 0.5 | 0.16 | 0.59 | 0.1 |
